The CheMixHub ionic liquid set
± gives the uncertainty stated by the source.

Assay: xn = mol fraction of the nth substance listed

CCCCCC[n+]1ccn(C)c1.[Br-] + CC#N
viscosity [mPa·s], 101 kPa
Conditions	288.15 K	298.15 K	308.15 K	318.15 K
x1 = 0.004174	0.403 ± 0.009	0.364 ± 0.008	0.333 ± 0.007	0.306 ± 0.007
x1 = 0.008131	0.424 ± 0.009	0.383 ± 0.008	0.35 ± 0.007	0.322 ± 0.007
x1 = 0.01172	0.424 ± 0.009	0.389 ± 0.008	0.371 ± 0.008	0.342 ± 0.007

CCCC[N+](CCCC)(CCCC)CCCC.[Br-] + CCCCCCCCCCCCOS(=O)(=O)[O-].[Na+] + O
viscosity [mPa·s], 100 kPa
Conditions	x2 = 1.81e-06, x1 = 0.0001802	x2 = 3.61e-06, x1 = 0.0001802	x2 = 5.42e-06, x1 = 0.0001802	x2 = 7.23e-06, x1 = 0.0001802	x2 = 9.04e-06, x1 = 0.0001802	x2 = 1.084e-05, x1 = 0.0001802	x2 = 1.265e-05, x1 = 0.0001802	x2 = 1.446e-05, x1 = 0.0001802	x2 = 1.627e-05, x1 = 0.0001802	x2 = 1.807e-05, x1 = 0.0001802
293.15 K	1.023 ± 0.027	1.024 ± 0.027	1.026 ± 0.027	1.027 ± 0.027	1.028 ± 0.027	1.029 ± 0.027	1.029 ± 0.027	1.03 ± 0.027	1.03 ± 0.027	1.03 ± 0.027
298.15 K	0.916 ± 0.027	0.919 ± 0.027	0.92 ± 0.027	0.921 ± 0.027	0.922 ± 0.027	0.922 ± 0.027	0.923 ± 0.027	0.924 ± 0.027	0.924 ± 0.027	0.925 ± 0.027
303.15 K	0.8 ± 0.027	0.801 ± 0.027	0.802 ± 0.027	0.802 ± 0.027	0.803 ± 0.027	0.803 ± 0.027	0.803 ± 0.027	0.803 ± 0.027	0.804 ± 0.027	0.804 ± 0.027
308.15 K	0.72 ± 0.026	0.721 ± 0.026	0.722 ± 0.026	0.723 ± 0.026	0.724 ± 0.026	0.724 ± 0.026	0.724 ± 0.026	0.725 ± 0.026	0.725 ± 0.026	0.725 ± 0.026
313.15 K	0.654 ± 0.026	0.655 ± 0.026	0.656 ± 0.026	0.657 ± 0.026	0.657 ± 0.026	0.657 ± 0.026	0.657 ± 0.026	0.657 ± 0.026	0.657 ± 0.026	0.658 ± 0.026
318.15 K	0.6 ± 0.026	0.601 ± 0.026	0.601 ± 0.026	0.601 ± 0.026	0.602 ± 0.026	0.602 ± 0.026	0.602 ± 0.026	0.602 ± 0.026	0.602 ± 0.026	0.603 ± 0.026
